Test results: EP0586229A1, “3-Hydroxy-3-(subst-akyl)-pyrrolidines as 5-lipoxygenase inhibitors” (ZENECA LIMITED, priority 1992, dated 1994)

Experiments:
5-LO [1] = molecular target: T1, 5-LO (Homo sapiens, UniProt P09917); experiment: Test a): in vitro heparinised human blood challenged with calcium ionophore A23187, radioimmunoassay of LTB₄; assay type: cell-based; conditions: A23187 challenge, read-out: IC₅₀ against LTB₄ in test (a)
T1 construct: incubating a test compound with heparinised human blood, prior to challenge with the calcium ionophore A23187; endogenous in cells; host or cells: heparinised human whole blood (blood cells)
T1 sequence (P09917 1-674): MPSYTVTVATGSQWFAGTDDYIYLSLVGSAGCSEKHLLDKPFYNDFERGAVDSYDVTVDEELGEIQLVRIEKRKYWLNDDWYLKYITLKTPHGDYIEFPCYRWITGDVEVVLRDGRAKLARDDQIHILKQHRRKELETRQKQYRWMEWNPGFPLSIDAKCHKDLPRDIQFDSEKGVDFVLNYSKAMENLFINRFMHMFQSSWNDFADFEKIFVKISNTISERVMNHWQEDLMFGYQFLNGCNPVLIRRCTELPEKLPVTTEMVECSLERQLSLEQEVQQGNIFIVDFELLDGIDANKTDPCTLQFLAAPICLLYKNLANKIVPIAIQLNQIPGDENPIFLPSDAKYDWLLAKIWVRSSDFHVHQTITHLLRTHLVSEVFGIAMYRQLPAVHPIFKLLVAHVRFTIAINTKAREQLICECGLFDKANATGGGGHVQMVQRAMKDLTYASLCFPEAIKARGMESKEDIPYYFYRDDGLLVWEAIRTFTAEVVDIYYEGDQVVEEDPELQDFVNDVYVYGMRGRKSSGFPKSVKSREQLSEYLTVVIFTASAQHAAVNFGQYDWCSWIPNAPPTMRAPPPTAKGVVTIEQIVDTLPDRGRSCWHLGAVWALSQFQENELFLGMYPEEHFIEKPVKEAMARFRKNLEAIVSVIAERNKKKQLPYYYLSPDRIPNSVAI
Source text: As stated previously, the compounds of the formula I are inhibitors of the enzyme 5-LO. […] J. Pharmacol. 1985, 84, 34P) which involve the use of a protein-LTB₄ conjugate produced using the procedure of Young et alia (Prostaglandins, 1983, 26(4), 605-613). The effects of a test compound on the enzyme cyclooxygenase (which is involved in the alternative metabolic pathway for arachidonic acid and gives rise to prostaglandins, thromboxanes and related metabolites) may be measured at the same time using the specific radioimmunoassay for thromboxane B₂(TxB₂) described by Carey and Forder (see above). This test provides an indication of the effects of a test compound against 5-LO and also cyclooxygenase in the presence of blood cells and proteins. It permits the selectivity of the inhibitory effect on 5-LO or cyclooxygenase to be assessed. • b) An ex vivo assay system, which is a variation of test a) above, involving administration to a group of rats of a test compound (usually orally as the suspension produced when a solution of the test compound in dimethylsulphoxide is added to carboxymethylcellulose), blood collection, heparinisation, challenge with A23187 and radioimmunoassay of LTB₄ and TxB₂. This test provides an indication of the bioavailability of a test compound as an inhibitor of 5-LO or cyclooxygenase. • c) An in vivo system involving measuring the effects of a test compound administered orally against the liberation of LTB₄ induced by zymosan within an air pouch generated within the subcutaneous tissue of the back of male rats. The rats are anaesthetised and air pouches are formed by the injection of sterile air (20ml). A further injection of air (10ml) is similarly given after 3 days. At 6 days after the initial air injection the test compound is administered (usually orally as the suspension produced when a solution of the test compound in dimethylsulphoxide is added to hydroxypropylmethylcellulose), followed by the intrapouch injection of zymosan (1ml of a 1% suspension in physiological saline). After 3 hours the rats are killed, the air pouches are lavaged with physiological saline, and the specific radioimmunoassay described above is used to assay LTB₄ in the washings. This test provides an indication of inhibitory effects against 5-LO in an inflammatory milieu.

5-LO [2] = experiment: Test c): in vivo zymosan-induced LTB₄ liberation in subcutaneous air pouch; conditions: oral, male rats, 3 hours
Source text: As stated previously, the compounds of the formula I are inhibitors of the enzyme 5-LO. […] J. Pharmacol. 1985, 84, 34P) which involve the use of a protein-LTB₄ conjugate produced using the procedure of Young et alia (Prostaglandins, 1983, 26(4), 605-613). The effects of a test compound on the enzyme cyclooxygenase (which is involved in the alternative metabolic pathway for arachidonic acid and gives rise to prostaglandins, thromboxanes and related metabolites) may be measured at the same time using the specific radioimmunoassay for thromboxane B₂(TxB₂) described by Carey and Forder (see above). This test provides an indication of the effects of a test compound against 5-LO and also cyclooxygenase in the presence of blood cells and proteins. It permits the selectivity of the inhibitory effect on 5-LO or cyclooxygenase to be assessed. • b) An ex vivo assay system, which is a variation of test a) above, involving administration to a group of rats of a test compound (usually orally as the suspension produced when a solution of the test compound in dimethylsulphoxide is added to carboxymethylcellulose), blood collection, heparinisation, challenge with A23187 and radioimmunoassay of LTB₄ and TxB₂. […]

SMILES | IC50 (5-LO [1]) [nM] | ED₅₀ versus LTB₄ in test (c) (5-LO [2])
COC1(c2cccc(OCc3ccc4ccccc4c3)c2)CCN(C)C1 (stereo not shown) [Example 1, 3-methoxy-1-methyl-3-[3-(naphth-2-ylmethoxy)phenyl]pyrrolidine] | 210 | 
COC1(c2cc(F)cc(Sc3ccc(C(C)=NO)cc3)c2)CCN(CC(F)(F)F)C1 (stereo not shown) [Example 32, 3-{5-fluoro-3-[4-(1-hydroxyiminoethyl)phenylthio]phenyl}-3-methoxy-1-(2,2,2-trifluoroethyl)pyrrolidine] | 40 | approximately 0.5 mg/kg
COC1(c2cc(F)cc(Sc3ccc4c(c3)CCC(=O)N4C)c2)CCN(CC(F)(F)F)C1 (stereo not shown) [Example 6, 3-[5-fluoro-3-(1-methyl-2-oxo-1,2,3,4-tetrahydroquinolin-6-ylthio)phenyl]-3-methoxy-1-(2,2,2-trifluoroethyl)pyrrolidine] | 30 | approximately 1.5 mg/kg

The next lines start with results.

IC50 (5-LO [1]) [nM] | SMILES | ED₅₀ versus LTB₄ in test (c) (5-LO [2])
60 | C#CCN1CCC(OC)(c2cccc(OCc3ccc4ccccc4c3)c2)C1 (stereo not shown) [Example 4, 3-methoxy-3-[3-(naphth-2-ylmethoxy)phenyl]-1-(prop-2-ynyl)pyrrolidine] | 
90 | CCn1c(=O)ccc2cc(COc3cccc(C4(OC)CCN(CC(F)(F)F)C4)c3)ccc21 (stereo not shown) [Example 5, 3-[3-(1-ethyl-2-oxo-1,2-dihydroquinolin-6-ylmethoxy)phenyl]-3-methoxy-1-(2,2,2-trifluoroethyl)pyrrolidine] | 
